Legend:
Assay in all cases: relative viability (nuclei count vs DMSO), 5 days (fraction); higher = more cells survive
[1] = compound: CCN1C(=O)C2=CC(=C(N=C2N(C1=O)C3CC3)N)C(=O)N + CC1(C)CCC(c2ccc(Cl)cc2)=C(CN2CCN(c3ccc(C(=O)NS(=O)(=O)c4ccc(N[C@H](CCN5CCOCC5)CSc5ccccc5)c(S(=O)(=O)C(F)(F)F)c4)cc3)CC2)C1 [Navitoclax] (partner 0.5 µM)
Procedure, shortened: (§1)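 Relative viability equals treated-well nuclei counts divided by vehicle-well nuclei counts. Counts came from 4× images of lung cancer cell lines grown in 1536-well plates for 5 days after pin-tool dosing on the day after seeding. Dosing used one drug alone or a fixed anchor-drug dose plus five library-drug doses (not always all listed) in √10 steps, and values are medians of duplicate plates.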

[2] = compound: CCN1C(=O)C2=CC(=C(N=C2N(C1=O)C3CC3)N)C(=O)N + CCNC(=O)c1noc(-c2cc(C(C)C)c(O)cc2O)c1-c1ccc(CN2CCOCC2)cc1 [Luminespib] (partner 0.01 µM)
Procedure, shortened: as §1

[3] = compound: CCN1C(=O)C2=CC(=C(N=C2N(C1=O)C3CC3)N)C(=O)N + CC(=O)Nc1cccc(-n2c(=O)n(C3CC3)c(=O)c3c(Nc4ccc(I)cc4F)n(C)c(=O)c(C)c32)c1 [Trametinib] (partner 0.02 µM)
Procedure, shortened: as §1

[4] = compound: CCN1C(=O)C2=CC(=C(N=C2N(C1=O)C3CC3)N)C(=O)N + NC(=O)Nc1cc(-c2cccc(F)c2)sc1C(=O)N[C@H]1CCCNC1 [AZD7762] (partner 0.2 µM)
Procedure, shortened: as §1

[5] = compound: CCN1C(=O)C2=CC(=C(N=C2N(C1=O)C3CC3)N)C(=O)N + Nc1ncn([C@H]2C[C@H](O)[C@@H](CO)O2)c(=O)n1 [Decitabine] (partner 2 µM)
Procedure, shortened: as §1

With NCI-H3122 the relative viability ([1]; first compound 0.253 µM) was 1.06, the relative viability ([1]; first compound 0.8 µM) was 1.02 and the relative viability ([1]; first compound 2.53 µM) was 1.02. The relative viability ([1]; first compound 8 µM) was 1.01, the relative viability ([2]; first compound 0.253 µM) was 0.0925 and the relative viability ([2]; first compound 0.8 µM) was 0.0714. The relative viability ([2]; first compound 2.53 µM) was 0.0957, the relative viability ([2]; first compound 8 µM) was 0.0756 and the relative viability ([3]; first compound 0.253 µM) was 0.224. The relative viability ([3]; first compound 0.8 µM) was 0.21, the relative viability ([3]; first compound 2.53 µM) was 0.266 and the relative viability ([3]; first compound 8 µM) was 0.224. For the same cell line, the relative viability ([4]; first compound 0.253 µM) was 0.922, the relative viability ([4]; first compound 0.8 µM) was 0.967 and the relative viability ([4]; first compound 2.53 µM) was 1.02. The relative viability ([4]; first compound 8 µM) was 0.983, the relative viability ([5]; first compound 0.253 µM) was 0.396 and the relative viability ([5]; first compound 0.8 µM) was 0.432. It also gave a relative viability ([5]; first compound 2.53 µM) of 0.434 and a relative viability ([5]; first compound 8 µM) of 0.427.
Work on PC-3 [JPC-3] yielded a relative viability ([1]; first compound 0.253 µM) of 0.747, a relative viability ([1]; first compound 0.8 µM) of 0.838 and a relative viability ([1]; first compound 2.53 µM) of 0.861. It also gave a relative viability ([1]; first compound 8 µM) of 0.755, a relative viability ([2]; first compound 0.253 µM) of 0.661 and a relative viability ([2]; first compound 0.8 µM) of 0.709. The relative viability ([2]; first compound 2.53 µM) was 0.663, the relative viability ([2]; first compound 8 µM) was 0.823 and the relative viability ([3]; first compound 0.253 µM) was 0.686. It also gave a relative viability ([3]; first compound 2.53 µM) of 0.686, a relative viability ([3]; first compound 8 µM) of 0.736 and a relative viability ([4]; first compound 0.253 µM) of 0.813. The relative viability ([4]; first compound 2.53 µM) was 0.966, the relative viability ([4]; first compound 8 µM) was 0.748 and the relative viability ([5]; first compound 0.253 µM) was 0.81. It also gave a relative viability ([5]; first compound 2.53 µM) of 0.871 and a relative viability ([5]; first compound 8 µM) of 0.886.
With PC-14 the relative viability ([1]; first compound 0.253 µM) was 1.01, the relative viability ([1]; first compound 0.8 µM) was 1.06 and the relative viability ([1]; first compound 2.53 µM) was 0.935. For the same cell line, the relative viability ([1]; first compound 8 µM) was 0.956, the relative viability ([2]; first compound 0.253 µM) was 0.144 and the relative viability ([2]; first compound 0.8 µM) was 0.159. The relative viability ([2]; first compound 2.53 µM) was 0.158, the relative viability ([2]; first compound 8 µM) was 0.119 and the relative viability ([3]; first compound 0.253 µM) was 0.743. For the same cell line, the relative viability ([3]; first compound 0.8 µM) was 0.721, the relative viability ([3]; first compound 2.53 µM) was 0.768 and the relative viability ([3]; first compound 8 µM) was 0.715. For the same cell line, the relative viability ([4]; first compound 0.253 µM) was 0.397, the relative viability ([4]; first compound 0.8 µM) was 0.288 and the relative viability ([4]; first compound 2.53 µM) was 0.513. For the same cell line, the relative viability ([4]; first compound 8 µM) was 0.294, the relative viability ([5]; first compound 0.253 µM) was 0.207 and the relative viability ([5]; first compound 0.8 µM) was 0.171. The relative viability ([5]; first compound 2.53 µM) was 0.244 and the relative viability ([5]; first compound 8 µM) was 0.193.
RERF-LC-KJ showed a relative viability ([1]; first compound 0.253 µM) of 1.21, a relative viability ([1]; first compound 0.8 µM) of 0.947 and a relative viability ([1]; first compound 2.53 µM) of 0.767. For the same cell line, the relative viability ([1]; first compound 8 µM) was 0.923, the relative viability ([2]; first compound 0.253 µM) was 1.27 and the relative viability ([2]; first compound 0.8 µM) was 1.17. The relative viability ([2]; first compound 2.53 µM) was 1.22, the relative viability ([2]; first compound 8 µM) was 1.14 and the relative viability ([3]; first compound 0.253 µM) was 0.697. For the same cell line, the relative viability ([3]; first compound 0.8 µM) was 0.793, the relative viability ([3]; first compound 2.53 µM) was 0.751 and the relative viability ([3]; first compound 8 µM) was 0.847. It also gave a relative viability ([4]; first compound 0.253 µM) of 1.02, a relative viability ([4]; first compound 0.8 µM) of 0.826 and a relative viability ([4]; first compound 2.53 µM) of 1.6. It also gave a relative viability ([4]; first compound 8 µM) of 1, a relative viability ([5]; first compound 0.253 µM) of 0.772 and a relative viability ([5]; first compound 0.8 µM) of 0.742. For the same cell line, the relative viability ([5]; first compound 2.53 µM) was 0.68 and the relative viability ([5]; first compound 8 µM) was 0.593.

From the supplement of paper PMC10307832
